The text below walks through data of paper PMC9197583 (Chemical communications (Cambridge, England), 2022).

The target in the assay is T1, NrtA (Synechocystis sp. PCC 6803, UniProt P73452).
T1 sequence (P73452 30-446): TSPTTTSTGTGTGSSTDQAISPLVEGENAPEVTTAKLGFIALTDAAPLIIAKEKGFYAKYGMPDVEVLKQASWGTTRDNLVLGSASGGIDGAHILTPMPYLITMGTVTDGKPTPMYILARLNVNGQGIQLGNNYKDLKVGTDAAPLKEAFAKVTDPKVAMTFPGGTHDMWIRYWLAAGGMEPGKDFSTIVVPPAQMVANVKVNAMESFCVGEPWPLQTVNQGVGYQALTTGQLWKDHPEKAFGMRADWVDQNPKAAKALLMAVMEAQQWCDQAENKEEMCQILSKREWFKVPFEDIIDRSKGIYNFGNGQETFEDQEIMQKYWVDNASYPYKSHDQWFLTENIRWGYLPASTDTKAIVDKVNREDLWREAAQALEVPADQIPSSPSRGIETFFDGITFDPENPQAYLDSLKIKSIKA
Briefly: isothermal titration calorimetry. In kind it is binding.

Molecules are shown by their SMILES.

The Kd is the equilibrium constant for the complex coming apart. `O=NO` [nitrite]: the affinity, expressed as Kd, was 230 ± 33 nM.

`O=[N+]([O-])O` [nitrate] displayed a dissociation constant Kd of 57 ± 23 nM.
